Test results as given in US4613355A, “Antibiotic having herbicidal activity” (Satoshi Omura, priority 1983, dated 1986).

Columns and labels:
Type in all cases: in vivo
Arctium lappa = test: Foliage treatment (Example 8); set-up: key: 0 indicates no effect; 5 indicates complete kill; conditions: Plant No. 30 Arctium lappa, 14 days
Method: (§1) Aqueous solutions of Phosalacine (Na salt) at different concentrations were applied at a rate of 1500 liters per hectare to naturally occurring plants or plants which were cultured on plates as shown in the following Table at certain stages of growth. […]

Artemisia princeps = test: Foliage treatment (Example 8); set-up: key: 0 indicates no effect; 5 indicates complete kill; conditions: Plant No. 1 Artemisia princeps
Method: as §1

Brassica oleracea = test: Foliage treatment (Example 8); set-up: key: 0 indicates no effect; 5 indicates complete kill; conditions: Plant No. 28 Brassica oleracea
Method: as §1

Cucumis sativus = test: Foliage treatment (Example 8); set-up: key: 0 indicates no effect; 5 indicates complete kill; conditions: Plant No. 33 Cucumis sativus
Method: as §1

Glycine max = test: Foliage treatment (Example 8); set-up: key: 0 indicates no effect; 5 indicates complete kill; conditions: Plant No. 34 Glycine max
Method: as §1

Miscanthus sinensis = test: Foliage treatment (Example 8); set-up: key: 0 indicates no effect; 5 indicates complete kill; conditions: Plant No. 5 Miscanthus sinensis
Method: as §1

Castanea crenata [1] = test: Foliage treatment of naturally growing weeds and brush (Example 9); set-up: key: 0 indicates no effect; 5 indicates complete kill; conditions: Plant No. 8 Castanea crenata, One month
Text: (§2) Aqueous solutions of Phosalacine (Na salt) at different concentrations and 0.1% of octylphenylpolyoxy ethanol as surfactant were applied to the area where various weeds and brush were naturally growing at a rate of 1500 liter per hectare. One month after the foliage treatment, damage to weeds and brush was visually assessed on a scale of from 0 to 5 where 0 indicates no effect and 5 indicates complete kill as hereinbefore defined.

Pteridium aquilinum = test: as above; set-up: key: 0 indicates no effect; 5 indicates complete kill; conditions: Plant No. 20 Pteridium aquilinum, One month
Text: as §2

Rubus palmatus = test: as above; set-up: key: 0 indicates no effect; 5 indicates complete kill; conditions: Plant No. 18 Rubus palmatus, One month
Text: as §2

Smilax china = test: as above; set-up: key: 0 indicates no effect; 5 indicates complete kill; conditions: Plant No. 17 Smilax china, One month
Text: as §2

Viburnum dilatatum = test: as above; set-up: key: 0 indicates no effect; 5 indicates complete kill; conditions: Plant No. 21 Viburnum dilatatum, One month
Text: as §2

Zanthoxylum piperitum = test: as above; set-up: key: 0 indicates no effect; 5 indicates complete kill; conditions: Plant No. 19 Zanthoxylum piperitum, One month
Text: as §2

[2] = test system: various weeds and brush (overall evaluation); test: as above; set-up: key: 0 indicates no effect; 5 indicates complete kill; conditions: OE overall evaluation, One month
Text: as §2

Castanea crenata [3] = test: Foliage treatment of woody plants (Example 10); set-up: key: 0 indicates no effect; 5 indicates complete kill; conditions: Plant No. 8 Castanea crenata
Text: (§3) Aqueous solutions containing Phosalacine (Na salt) at different concentrations and 0.1% of octylphenylpolyoxy ethanol as surfactant were applied at a rate of 1500 liter per hectare to woody plants of about 60-70 cm in height. 7 and 14 days after the foliage treatment, damage to the plants was visually assessed on a scale of from 0 to 5 (cf. Example 7).

Larix leptolepis = test: Foliage treatment of woody plants (Example 10); set-up: key: 0 indicates no effect; 5 indicates complete kill; conditions: Plant No. 23 Larix leptolepis
Text: as §3

Picea densiflora = test: Foliage treatment of woody plants (Example 10); set-up: key: 0 indicates no effect; 5 indicates complete kill; conditions: Plant No. 22 Picea densiflora
Text: as §3

Chamaecyparis obtusa = test: Foliage treatment of woody plants (Example 10); set-up: key to damage to the plants, scale 0 to 5: 0 indicates no effect; 5 indicates complete kill; conditions: CH Chamaecyparis obtusa
Text: as §3

Cryptomeria japonica = test: Foliage treatment of woody plants (Example 10); set-up: key to damage to the plants, scale 0 to 5: 0 indicates no effect; 5 indicates complete kill; conditions: CP Cryptomeria japonica
Text: as §3

## C[C@H](NC(=O)[C@H](C)NC(=O)[C@@H](N)CCP(C)(=O)[O-])C(=O)O.[Na+] [SF, reference compound]
Arctium lappa; 0.1%
  damage to the plants, scale 0 to 5: 4
Arctium lappa; 0.2%
  damage to the plants, scale 0 to 5: 5
Artemisia princeps; 0.1%, 7 days
  damage to the plants, scale 0 to 5: 3
Artemisia princeps; 0.1%, 14 days
  damage to the plants, scale 0 to 5: 4
Artemisia princeps; 0.2%, 7 days
  damage to the plants, scale 0 to 5: 4
Artemisia princeps; 0.2%, 14 days
  damage to the plants, scale 0 to 5: 5
Brassica oleracea; 0.1%, 7 days
  damage to the plants, scale 0 to 5: 3
Brassica oleracea; 0.1%, 14 days
  damage to the plants, scale 0 to 5: 4
Brassica oleracea; 0.2%, 7 days
  damage to the plants, scale 0 to 5: 4
Brassica oleracea; 0.2%, 14 days
  damage to the plants, scale 0 to 5: 5
Cucumis sativus; 0.1%, 7 days
  damage to the plants, scale 0 to 5: 3
Cucumis sativus; 0.1%, 14 days
  damage to the plants, scale 0 to 5: 4
Cucumis sativus; 0.2%, 7 days
  damage to the plants, scale 0 to 5: 4
Cucumis sativus; 0.2%, 14 days
  damage to the plants, scale 0 to 5: 5
Glycine max; 0.1%, 7 days
  damage to the plants, scale 0 to 5: 3
Glycine max; 0.1%, 14 days
  damage to the plants, scale 0 to 5: 4
Glycine max; 0.2%, 7 days
  damage to the plants, scale 0 to 5: 4
Glycine max; 0.2%, 14 days
  damage to the plants, scale 0 to 5: 5
Miscanthus sinensis; 0.1%, 7 days
  damage to the plants, scale 0 to 5: 3
Miscanthus sinensis; 0.1%, 14 days
  damage to the plants, scale 0 to 5: 4
Miscanthus sinensis; 0.2%, 7 days
  damage to the plants, scale 0 to 5: 4
Miscanthus sinensis; 0.2%, 14 days
  damage to the plants, scale 0 to 5: 5
Castanea crenata [1]; 0.05%
  damage to weeds and brush, scale 0 to 5: 2
Castanea crenata [1]; 0.1%
  damage to weeds and brush, scale 0 to 5: 4
Castanea crenata [1]; 0.2%
  damage to weeds and brush, scale 0 to 5: 5
Pteridium aquilinum; 0.05%
  damage to weeds and brush, scale 0 to 5: 2
Pteridium aquilinum; 0.1%
  damage to weeds and brush, scale 0 to 5: 4
Pteridium aquilinum; 0.2%
  damage to weeds and brush, scale 0 to 5: 5
Rubus palmatus; 0.05%
  damage to weeds and brush, scale 0 to 5: 2
Rubus palmatus; 0.1%
  damage to weeds and brush, scale 0 to 5: 4
Rubus palmatus; 0.2%
  damage to weeds and brush, scale 0 to 5: 5
Smilax china; 0.05%
  damage to weeds and brush, scale 0 to 5: 2
Smilax china; 0.1%
  damage to weeds and brush, scale 0 to 5: 4
Smilax china; 0.2%
  damage to weeds and brush, scale 0 to 5: 5
Viburnum dilatatum; 0.05%
  damage to weeds and brush, scale 0 to 5: 2
Viburnum dilatatum; 0.1%
  damage to weeds and brush, scale 0 to 5: 4
Viburnum dilatatum; 0.2%
  damage to weeds and brush, scale 0 to 5: 5
Zanthoxylum piperitum; 0.05%
  damage to weeds and brush, scale 0 to 5: 2
Zanthoxylum piperitum; 0.1%
  damage to weeds and brush, scale 0 to 5: 4
Zanthoxylum piperitum; 0.2%
  damage to weeds and brush, scale 0 to 5: 5
[2]; 0.05%
  damage to weeds and brush, scale 0 to 5: 2
[2]; 0.1%
  damage to weeds and brush, scale 0 to 5: 4
[2]; 0.2%
  damage to weeds and brush, scale 0 to 5: 5
Castanea crenata [3]; 0.125%, 7 days
  damage to the plants, scale 0 to 5: 5
Castanea crenata [3]; 0.125%, 14 days
  damage to the plants, scale 0 to 5: 5
Castanea crenata [3]; 0.25%, 7 days
  damage to the plants, scale 0 to 5: 5
Castanea crenata [3]; 0.25%, 14 days
  damage to the plants, scale 0 to 5: 5
Castanea crenata [3]; 0.5%, 7 days
  damage to the plants, scale 0 to 5: 5
Castanea crenata [3]; 0.5%, 14 days
  damage to the plants, scale 0 to 5: 5
Larix leptolepis; 0.125%, 7 days
  damage to the plants, scale 0 to 5: 4
Larix leptolepis; 0.125%, 14 days
  damage to the plants, scale 0 to 5: 5
Larix leptolepis; 0.25%, 7 days
  damage to the plants, scale 0 to 5: 4
Larix leptolepis; 0.25%, 14 days
  damage to the plants, scale 0 to 5: 5
Larix leptolepis; 0.5%, 7 days
  damage to the plants, scale 0 to 5: 4
Larix leptolepis; 0.5%, 14 days
  damage to the plants, scale 0 to 5: 5
Picea densiflora; 0.125%, 7 days
  damage to the plants, scale 0 to 5: 4
Picea densiflora; 0.125%, 14 days
  damage to the plants, scale 0 to 5: 5
Picea densiflora; 0.25%, 7 days
  damage to the plants, scale 0 to 5: 4
Picea densiflora; 0.25%, 14 days
  damage to the plants, scale 0 to 5: 5
Picea densiflora; 0.5%, 7 days
  damage to the plants, scale 0 to 5: 4
Picea densiflora; 0.5%, 14 days
  damage to the plants, scale 0 to 5: 5
Chamaecyparis obtusa; 0.125%, 7 days
  damage to the plants, scale 0 to 5: 0
Chamaecyparis obtusa; 0.125%, 14 days
  damage to the plants, scale 0 to 5: 0
Chamaecyparis obtusa; 0.25%, 7 days
  damage to the plants, scale 0 to 5: 0
Chamaecyparis obtusa; 0.25%, 14 days
  damage to the plants, scale 0 to 5: 0
Chamaecyparis obtusa; 0.5%, 7 days
  damage to the plants, scale 0 to 5: 0
Chamaecyparis obtusa; 0.5%, 14 days
  damage to the plants, scale 0 to 5: 0
Cryptomeria japonica; 0.125%, 7 days
  damage to the plants, scale 0 to 5: 0
Cryptomeria japonica; 0.125%, 14 days
  damage to the plants, scale 0 to 5: 0
Cryptomeria japonica; 0.25%, 7 days
  damage to the plants, scale 0 to 5: 0
Cryptomeria japonica; 0.25%, 14 days
  damage to the plants, scale 0 to 5: 1
Cryptomeria japonica; 0.5%, 7 days
  damage to the plants, scale 0 to 5: 0
Cryptomeria japonica; 0.5%, 14 days
  damage to the plants, scale 0 to 5: 2
